Reference: US20120077738A1, “COMPOSITIONS AND METHODS FOR […] SUSCEPTIBILITY TO ANTIVIRAL AGENTS” (priority 2010, published 2012)

Test system: genotype 1 HCV
Assay: HCV outcome after liver transplant in HIV/HCV coinfected patients by calcineurin inhibitor
Format: in vivo, human
Text: Calcineurin Inhibition Use posttransplant in HIV/HCV infected patients. Eighty HIV/HCV coinfected patients received liver transplants as part of the HIV and transplantation trial from 2003-2009. Of these patients 61 were infected with genotype 1 HCV and received only a liver (not liver+kidney) and are further described here and in the corresponding data shown in FIGS. 1-14.

C=CC[C@@H]1/C=C(\C)C[C@H](C)C[C@H](OC)[C@H]2O[C@@](O)(C(=O)C(=O)N3CCCC[C@H]3C(=O)O[C@H](/C(C)=C/[C@@H]3CC[C@@H](O)[C@H](OC)C3)[C@H](C)[C@@H](O)CC1=O)[C@H](C)C[C@@H]2OC [Tacrolimus]
failed interferon therapy (by calcineurin inhibitor started immediately post transplant, two of the CsA group had switched to Tacrolimus): 13 patients
Sustained Virologic Response (negative HCV PCR 6 months or more after HCV therapy was stopped) (patients on Tacrolimus immediately post transplant who received interferon based therapy): one patient out of these 14
